Results from patent publication US20030125569A1, “Use of packing strip as a holographic data carrier” (priority 2002, published 2003).

Experiments:
[1] = Estimated water content of crystalline forms after exposure to an atmosphere of defined relative humidity; type: physicochemical; conditions: (3R,5S)-enantiomer; form obtained from Form E by exposure to defined relative humidity (A: 0 to 20%; B1/B2: 20 to 55%; C: 75%; D: 90%); monosodium salt
Protocol: The preparation of crystalline polymorphic Forms A, B1, B2, C and D is usually carried out by using Form E as the starting compound and by exposing Form E to an atmosphere having a defined relative humidity. Depending on the relative humidity used the different forms can be obtained.
Form E of Fluvastatin sodium ((3R,5S)-enantiomer) is first exposed to an atmosphere having a relative humidity of 90% for about 4 hours and subsequently to an atmosphere of 0 to 20% for about 90 minutes. This treatment leads to Form A of the (3R,5S)-enantiomer with an estimated water content of 0 to 5%. The above treatment can be carried out in an X-ray diffractometer in which the relative humidity of the atmosphere can be controlled during the measurement. X-ray powder diffraction studies show the product to be polymorphic Form A (see FIG. 1).
Form E of Fluvastatin sodium ((3R,5S)-enantiomer) is first exposed to an atmosphere having a relative humidity of 90% for about 4 hours and subsequently to an atmosphere of 20 to 55% for about 3 hours. This treatment leads to either Form B1 or Form B2 of the (3R,5S)-enantiomer with an estimated water content of 5 to 15%. The above treatment can be carried out in an X-ray diffractometer in which the relative humidity of the atmosphere can be controlled during the measurement. […]

[2] = biological target: T1, 3-hydroxy-3-methylglutaryl coenzyme A (HMG-CoA) (Homo sapiens, UniProt P04035); conditions: O. Tempkin et al., Tetrahedron 1997, vol. 53, pages 10659-10670; cited from earlier work
T1 sequence (P04035 1-888): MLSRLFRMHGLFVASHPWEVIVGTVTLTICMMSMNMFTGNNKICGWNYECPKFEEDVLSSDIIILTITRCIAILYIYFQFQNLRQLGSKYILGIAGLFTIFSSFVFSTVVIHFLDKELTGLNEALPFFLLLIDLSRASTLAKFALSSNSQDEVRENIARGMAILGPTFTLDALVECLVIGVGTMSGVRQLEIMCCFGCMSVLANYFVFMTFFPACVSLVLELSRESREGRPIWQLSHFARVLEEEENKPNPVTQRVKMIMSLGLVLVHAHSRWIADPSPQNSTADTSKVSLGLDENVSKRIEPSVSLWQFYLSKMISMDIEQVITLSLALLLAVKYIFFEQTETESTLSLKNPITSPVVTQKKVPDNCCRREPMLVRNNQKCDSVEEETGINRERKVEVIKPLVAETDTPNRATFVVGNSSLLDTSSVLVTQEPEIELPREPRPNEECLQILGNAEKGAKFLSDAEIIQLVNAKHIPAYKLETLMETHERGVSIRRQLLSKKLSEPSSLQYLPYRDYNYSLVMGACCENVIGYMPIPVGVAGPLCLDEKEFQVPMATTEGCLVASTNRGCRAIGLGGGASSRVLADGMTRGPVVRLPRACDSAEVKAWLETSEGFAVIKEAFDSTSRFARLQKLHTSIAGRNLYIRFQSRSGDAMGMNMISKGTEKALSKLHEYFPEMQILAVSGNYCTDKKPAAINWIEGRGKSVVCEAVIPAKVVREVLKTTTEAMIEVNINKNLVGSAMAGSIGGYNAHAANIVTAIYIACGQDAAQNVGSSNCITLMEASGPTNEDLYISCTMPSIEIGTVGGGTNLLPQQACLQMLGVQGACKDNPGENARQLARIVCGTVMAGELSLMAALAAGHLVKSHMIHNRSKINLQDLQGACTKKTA

Row | estimated water content [1] [%] | SMILES | biological potency among enantiomers [2]
1 | 30 | CC(C)n1c(/C=C/[C@@H](O)C[C@@H](O)CC(=O)[O-])c(-c2ccc(F)cc2)c2ccccc21.[Na+] (single isomer, unassigned) [Form D, (3R,5S)- or (3S,5R)-7-(3-(4-fluorophenyl)-1-(1-methylethyl)-1H-indol-2-yl)-3,5-dihydroxy-6-heptenoic acid monosodium salt] | 
2 |  | CC(C)n1c(/C=C/[C@@H](O)C[C@@H](O)CC(=O)[O-])c(-c2ccc(F)cc2)c2ccccc21.[Na+] (single isomer, unassigned; enantiomer 7) [(3R,5S)-enantiomer, 7-(3-(4-fluorophenyl)-1-(1-methylethyl)-1H-indol-2-yl)-3,5-dihydroxy-6-heptenoic acid monosodium salt] | biologically most potent enantiomer
